Tests used:
Olfr691 = molecular target: T1, Olfr691 (Mus musculus, UniProt Q8VGW5); test: dual-luciferase (cAMP/CREB reporter) ligand screen, Olfr691 in HEK293T cells; format: cell-based; conditions: for Olfr691 response in dual-luciferase assay: chemicals tested individually, screened at 500uM (* also at 100uM); for Relative response (% of 4-pentenoate response) at 500 µM: HEK-293T, 4 h, 0.5 mM ligand, normalized to the response of Olfr691 to the strongest ligand
T1 construct: Lucy (N); expressed in transfected cells; host or cells: HEK293T, co-transfected with RTP1S
T1 sequence (Q8VGW5 1-322): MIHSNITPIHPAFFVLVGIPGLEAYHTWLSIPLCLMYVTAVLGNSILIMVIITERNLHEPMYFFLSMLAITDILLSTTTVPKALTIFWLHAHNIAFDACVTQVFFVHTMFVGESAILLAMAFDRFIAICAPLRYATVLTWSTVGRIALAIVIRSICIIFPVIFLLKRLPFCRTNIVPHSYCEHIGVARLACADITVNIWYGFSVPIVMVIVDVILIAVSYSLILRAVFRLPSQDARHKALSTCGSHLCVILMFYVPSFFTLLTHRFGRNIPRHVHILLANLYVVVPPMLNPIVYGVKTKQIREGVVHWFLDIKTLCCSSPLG

Olfr693 = test: dual-luciferase (cAMP/CREB reporter) ligand screen, Olfr693 in HEK293T cells; format: cell-based, mouse; parameters: key: ‘+’ or ‘–‘ in each column indicates if the olfactory receptor responded or had no effect to that specific chemical; -: ‘+’ or ‘–‘ in each column indicates if the olfactory receptor responded or had no effect to that specific chemical; conditions: chemicals tested individually, screened at 500uM (* also at 100uM)
Olfr99 = test: dual-luciferase (cAMP/CREB reporter) ligand screen, Olfr99 in HEK293T cells; format: cell-based, mouse; parameters: key: ‘+’ or ‘–‘ in each column indicates if the olfactory receptor responded or had no effect to that specific chemical; -: ‘+’ or ‘–‘ in each column indicates if the olfactory receptor responded or had no effect to that specific chemical; conditions: chemicals tested individually, screened at 500uM (* also at 100uM)
Olfr31 = molecular target: T2, Olfr31 (Mus musculus, UniProt Q3KPA7); test: dual-luciferase (cAMP/CREB reporter) ligand screen, Olfr31 in HEK293T cells; format: cell-based; conditions: chemicals tested individually, screened at 500uM (* also at 100uM)
T2 construct: expressed in transfected cells; host or cells: HEK293T, co-transfected with RTP1S
T2 sequence (Q3KPA7 1-317): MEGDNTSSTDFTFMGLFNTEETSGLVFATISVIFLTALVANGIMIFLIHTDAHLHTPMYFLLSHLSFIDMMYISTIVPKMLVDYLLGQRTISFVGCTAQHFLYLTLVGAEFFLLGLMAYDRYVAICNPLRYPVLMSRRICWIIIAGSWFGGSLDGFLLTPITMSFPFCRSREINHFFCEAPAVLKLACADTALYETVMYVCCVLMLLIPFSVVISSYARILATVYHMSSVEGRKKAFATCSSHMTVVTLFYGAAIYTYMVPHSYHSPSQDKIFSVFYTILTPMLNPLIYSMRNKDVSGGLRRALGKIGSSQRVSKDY

Olfr545 = test: dual-luciferase (cAMP/CREB reporter) ligand screen, Olfr545 in HEK293T cells; format: cell-based, mouse; parameters: key to Olfr545 response in dual-luciferase assay: ‘+’ or ‘–‘ in each column indicates if the olfactory receptor responded or had no effect to that specific chemical; -: ‘+’ or ‘–‘ in each column indicates if the olfactory receptor responded or had no effect to that specific chemical; conditions: chemicals tested individually, screened at 500uM (* also at 100uM)

## CC(C)(C)C1CCC(O)CC1 (centres unmarked) [4-tert-butylcyclohexanol]
Olfr691
  Olfr691 response in dual-luciferase assay: -
Olfr693
  Olfr693 response in dual-luciferase assay: -
Olfr99
  Olfr99 response in dual-luciferase assay: -
Olfr31
  Olfr31 response in dual-luciferase assay: -
Olfr545
  Olfr545 response in dual-luciferase assay: -

## C=CC(C)(CCC=C(C)C)OC(C)=O (centres unmarked) [Linalyl acetate]
Olfr691
  Olfr691 response in dual-luciferase assay: -
Olfr693
  Olfr693 response in dual-luciferase assay: -
Olfr99
  Olfr99 response in dual-luciferase assay: -
Olfr31
  Olfr31 response in dual-luciferase assay: -
Olfr545
  Olfr545 response in dual-luciferase assay: -

## CC(C)[C@H](N)C(=O)O [l-valine]
Olfr691
  Olfr691 response in dual-luciferase assay: -
Olfr693
  Olfr693 response in dual-luciferase assay: -
Olfr99
  Olfr99 response in dual-luciferase assay: -
Olfr31
  Olfr31 response in dual-luciferase assay: -
Olfr545
  Olfr545 response in dual-luciferase assay: -

## Cn1c(=O)c2c(ncn2C)n(C)c1=O [caffeine, reference compound]
Olfr691
  Olfr691 response in dual-luciferase assay: -
Olfr693
  Olfr693 response in dual-luciferase assay: -
Olfr99
  Olfr99 response in dual-luciferase assay: -
Olfr31
  Olfr31 response in dual-luciferase assay: -
Olfr545
  Olfr545 response in dual-luciferase assay: -

## CCOC(=O)c1ccccc1 [ethyl benzoate]
Olfr691
  Olfr691 response in dual-luciferase assay: -
Olfr693
  Olfr693 response in dual-luciferase assay: -
Olfr99
  Olfr99 response in dual-luciferase assay: -
Olfr31
  Olfr31 response in dual-luciferase assay: -
Olfr545
  Olfr545 response in dual-luciferase assay: -

## CCCC(=O)O [butyrate]
Olfr691
  Relative response (% of 4-pentenoate response) at 500 µM: 55 ± 2.5%
  Olfr691 response in dual-luciferase assay: +
Olfr693
  Olfr693 response in dual-luciferase assay: -
Olfr99
  Olfr99 response in dual-luciferase assay: -
Olfr31
  Olfr31 response in dual-luciferase assay: -
Olfr545
  Olfr545 response in dual-luciferase assay: -

## CCCCCCCC(=O)O [octanoic acid]
Olfr691
  Olfr691 response (in words): responds
  Relative response (% of 4-pentenoate response) at 500 µM: 20 ± 0.9%
  Olfr691 response in dual-luciferase assay: +
Olfr693
  Olfr693 response in dual-luciferase assay: -
Olfr99
  Olfr99 response in dual-luciferase assay: -
Olfr31
  Olfr31 response in dual-luciferase assay: -
Olfr545
  Olfr545 response in dual-luciferase assay: -

## CCCCCC(=O)CC [3-octanone]
Olfr691
  Olfr691 response in dual-luciferase assay: -
Olfr693
  Olfr693 response in dual-luciferase assay: -
Olfr99
  Olfr99 response in dual-luciferase assay: -
Olfr31
  Olfr31 response in dual-luciferase assay: -
Olfr545
  Olfr545 response in dual-luciferase assay: -

## CCCCCOC(=O)CCCCC [Amylhexanoate]
Olfr691
  Olfr691 response in dual-luciferase assay: -
Olfr693
  Olfr693 response in dual-luciferase assay: -
Olfr99
  Olfr99 response in dual-luciferase assay: -
Olfr31
  Olfr31 response in dual-luciferase assay: -
Olfr545
  Olfr545 response in dual-luciferase assay: -

## C=CC(C)(O)CCC=C(C)CCC=C(C)C (mixture of isomers) [nerolidol]
Olfr691
  Olfr691 response in dual-luciferase assay: -
Olfr693
  Olfr693 response in dual-luciferase assay: -
Olfr99
  Olfr99 response in dual-luciferase assay: -
Olfr31
  Olfr31 response in dual-luciferase assay: -
Olfr545
  Olfr545 response in dual-luciferase assay: -

## CCCCCC(C)=O [2-heptanone]
Olfr691
  Olfr691 response in dual-luciferase assay: -
Olfr693
  Olfr693 response in dual-luciferase assay: -
Olfr99
  Olfr99 response in dual-luciferase assay: -
Olfr31
  Olfr31 response in dual-luciferase assay: -
Olfr545
  Olfr545 response in dual-luciferase assay: -

## CCCCCCCCO [1-octanol]
Olfr691
  Olfr691 response in dual-luciferase assay: -
Olfr693
  Olfr693 response in dual-luciferase assay: -
Olfr99
  Olfr99 response in dual-luciferase assay: -
Olfr31
  Olfr31 response in dual-luciferase assay: -
Olfr545
  Olfr545 response in dual-luciferase assay: -

## CC(C)C(=O)OCCc1ccccc1 [phenyl ethyl isobutyrate]
Olfr691
  Olfr691 response in dual-luciferase assay: -
Olfr693
  Olfr693 response in dual-luciferase assay: -
Olfr99
  Olfr99 response in dual-luciferase assay: -
Olfr31
  Olfr31 response in dual-luciferase assay: -
Olfr545
  Olfr545 response in dual-luciferase assay: -

## CC(C)=CCC/C(C)=C/CO [Geraniol]
Olfr691
  Olfr691 response in dual-luciferase assay: -
Olfr693
  Olfr693 response in dual-luciferase assay: -
Olfr99
  Olfr99 response in dual-luciferase assay: -
Olfr31
  Olfr31 response in dual-luciferase assay: -
Olfr545
  Olfr545 response in dual-luciferase assay: -

## CCCCCCCCC=O [nonanal]
Olfr691
  Olfr691 response in dual-luciferase assay: -
Olfr693
  Olfr693 response in dual-luciferase assay: -
Olfr99
  Olfr99 response in dual-luciferase assay: -
Olfr31
  Olfr31 response in dual-luciferase assay: -
Olfr545
  Olfr545 response in dual-luciferase assay: -

## C=CC(C)(O)CCC=C(C)C (centres unmarked) [linalool]
Olfr691
  Olfr691 response in dual-luciferase assay: -
Olfr693
  Olfr693 response in dual-luciferase assay: -
Olfr99
  Olfr99 response in dual-luciferase assay: -
Olfr31
  Olfr31 response in dual-luciferase assay: -
Olfr545
  Olfr545 response in dual-luciferase assay: -

## O=C(O)CCC(=O)O [Succinate]
Olfr691
  Olfr691 response in dual-luciferase assay: -
Olfr693
  Olfr693 response in dual-luciferase assay: -
Olfr99
  Olfr99 response in dual-luciferase assay: -
Olfr31
  Olfr31 response in dual-luciferase assay: -
Olfr545
  Olfr545 response in dual-luciferase assay: -

## SCCCCCCS [1,6-hexanedithiol]
Olfr691
  Olfr691 response in dual-luciferase assay: -
Olfr693
  Olfr693 response in dual-luciferase assay: -
Olfr99
  Olfr99 response in dual-luciferase assay: -
Olfr31
  Olfr31 response in dual-luciferase assay: -
Olfr545
  Olfr545 response in dual-luciferase assay: -

## CCCCCCCCC(=O)O [nonanoic acid]
Olfr691
  Olfr691 response in dual-luciferase assay: -
Olfr693
  Olfr693 response in dual-luciferase assay: -
Olfr99
  Olfr99 response in dual-luciferase assay: -
Olfr31
  Olfr31 response in dual-luciferase assay: -
Olfr545
  Olfr545 response in dual-luciferase assay: -

## O=C1Cc2ccccc2O1 [2-cumaranon]
Olfr691
  Olfr691 response in dual-luciferase assay: -
Olfr693
  Olfr693 response in dual-luciferase assay: -
Olfr99
  Olfr99 response in dual-luciferase assay: -
Olfr31
  Olfr31 response in dual-luciferase assay: -
Olfr545
  Olfr545 response in dual-luciferase assay: -

## C=C(C)C1CC=C(C)C(=O)C1 (centres unmarked) [Carvone]
Olfr691
  Olfr691 response in dual-luciferase assay: -
Olfr693
  Olfr693 response in dual-luciferase assay: -
Olfr99
  Olfr99 response in dual-luciferase assay: -
Olfr31
  Olfr31 response in dual-luciferase assay: -
Olfr545
  Olfr545 response in dual-luciferase assay: -

## C=C[C@H](O)CCCCC [(R)-1-Octen-3-ol]
Olfr691
  Olfr691 response in dual-luciferase assay: -
Olfr693
  Olfr693 response in dual-luciferase assay: -
Olfr99
  Olfr99 response in dual-luciferase assay: -
Olfr31
  Olfr31 response in dual-luciferase assay: -
Olfr545
  Olfr545 response in dual-luciferase assay: -

## CCCCC/C=C/CO [trans-2-octen-1-ol]
Olfr691
  Olfr691 response in dual-luciferase assay: -
Olfr693
  Olfr693 response in dual-luciferase assay: -
Olfr99
  Olfr99 response in dual-luciferase assay: -
Olfr31
  Olfr31 response in dual-luciferase assay: -
Olfr545
  Olfr545 response in dual-luciferase assay: -

## O=C1CCC(=O)CC1 [1,4-cyclohexanedione]
Olfr691
  Olfr691 response in dual-luciferase assay: -
Olfr693
  Olfr693 response in dual-luciferase assay: -
Olfr99
  Olfr99 response in dual-luciferase assay: -
Olfr31
  Olfr31 response in dual-luciferase assay: -
Olfr545
  Olfr545 response in dual-luciferase assay: -

## O=C(O)CC(=O)O [Malonate]
Olfr691
  Olfr691 response in dual-luciferase assay: -
Olfr693
  Olfr693 response in dual-luciferase assay: -
Olfr99
  Olfr99 response in dual-luciferase assay: -
Olfr31
  Olfr31 response in dual-luciferase assay: -
Olfr545
  Olfr545 response in dual-luciferase assay: -

From paper PMC4207771, “Identification and Characterization of Novel Renal Sensory Receptors” (PLoS ONE, 2014)
